Test results: publication PMC7155171, “Probing the Open Global Health Chemical Diversity Library for Multistage-Active Starting Points for Next-Generation Antimalarials” (ACS Infectious Diseases, 2020)
Where two headings read alike, the source gives them in different places.

How the values were obtained:
[1] = tested on: P. falciparum Dd2 (PfLuc) line expressing firefly luciferase, asexual blood stage; test: microbe, parasite or virus in culture; parameters: species or system P. falciparum Dd2-luciferase in human red blood cells; PfLuc Dd2 asexual blood stage luciferase viability, BrightGlo luminescence, 48 h; conditions: Plasmodium falciparum, DD2, Erythrocyte, read-out: CDD P. falciparum Luciferase 11pt dose response (48hr, n=2): IC50 (μM), 11-point
Procedure: (§1) A transgenic line of Plasmodium falciparum (Dd2) constitutively expressing firefly luciferase was used for primary and reconfirmation screening. Cultures were maintained in complete media at 5% hematocrit (Human Whole Blood O+) and incubated at 37 °C in a low oxygen environment (3% O2, 5% CO2, and 92% N2). Culture health and parasitemia were tracked by Giemsa staining and bright field microscopy. Prior to dispensing parasites for primary screening, 20 nL of test compounds and 10 nL of control compounds (artemisinin and DMSO) were seeded per well using an Echo 550 acoustic dispenser (Labcyte) for final assay concentrations of 5 and 10 μM, respectively. When parasite cultures reached 3% to 8% parasitemia, as determined by a blood smear, infected blood was centrifuged at 800g for 5 min. […] From this blood mixture, 8 μL was dispensed per well in 1536-well, white, solid-bottom plates (789173-F, Greiner) using a MultiFlo FX Multi-Mode dispenser (BioTek). Plates were covered with a porous metal lid and incubated at 37 °C inside large plastic Ziploc bags filled with a blood gas mixture (3% O2, 5% CO2, and 92% N2) for 96 h. To prevent evaporation, a clean tray of water was included within each bag. Following incubation, BrightGlo was prepared by manufacturer specifications and dispensed at 2 μL per well using the MultiFlo dispenser. Plates were left for 20 min before being read with the ViewLux uHTS microplate imager (PerkinElmer) with a 90 s exposure time at the High Sensitivity Luminescence setting. Raw data were processed using GeneData (v12.0.5), whereby activity was normalized to negative minus positive controls. The correction of Runwise Pattern (Multiplicative) was applied, and compounds were considered hits when activity was reduced by ≥70%. […] Also, plates tested in 11-point dose response format were incubated at both 48 a From these (Sets 1 and 2), compounds were resupplied as fresh powders and evaluated in 11-point dose response tests (Pfluc; n = 2) for the two time points.

P. falciparum Dd2 [2] = test: microbe, parasite or virus in culture; parameters: species or system P. falciparum Dd2 in human red blood cells; SYBR Green I asexual blood stage proliferation (DNA) assay, P. falciparum Dd2, 96 h; conditions: Plasmodium falciparum, DD2, Erythrocyte, 96 h, read-out: CDD P. falciparum Sybr Green I ABS Dd2 Dose Response: IC50 (uM)
[3] = tested on: P. falciparum Dd2 (PfLuc) line expressing firefly luciferase, asexual blood stage; test: microbe, parasite or virus in culture; parameters: species or system P. falciparum Dd2-luciferase in human red blood cells; PfLuc Dd2 asexual blood stage luciferase viability, BrightGlo luminescence, 96 h; conditions: Plasmodium falciparum, DD2, Erythrocyte
Procedure: as §1, with “The primary assay was run at a compound concentration of 5 μM. Briefly, 8 μL of an ABS parasite mixture (∼10,000 parasites) was dispensed into 1536-well plates previously spotted with 64,811 GHCDL compounds (the remaining 3642 library compounds arrived later” for “From these (Sets 1”, “and” for “and 2), compounds”, “evaluated separately). After a 96 h incubation, 2 μL of luciferin (BrightGlo) was added,” for “resupplied as fresh powders”, “the luminescent signal was measured. Bioluminescence was normalized to DMSO (negative control) and artemisinin-treated (positive control) wells” for “evaluated in 11-point dose response tests (Pfluc; n = 2)”, “single point screens. For this primary screen, assay fidelity was determined on a per plate basis using both the Z′-factor and the potency variance of the positive (artemisinin) and negative (DMSO) controls. The mean Z′ value was 0.60 (range of 0.43–0.75), with only one plate falling below our ideal 0.5 threshold (Figure S1).” for “two time points.”

[4] = tested on: P. falciparum (NF54) stage V gametocytes; test: Stage V gametocyte viability assay (MitoTracker Red CMXRos high content imaging); type: cell-based, Plasmodium falciparum; conditions: Plasmodium falciparum, NF54, 72 h
[5] = tested on: P. falciparum Dd2 (PfLuc) line expressing firefly luciferase, asexual blood stage; test: microbe, parasite or virus in culture; type: cell-based, Plasmodium falciparum; conditions: Plasmodium falciparum
P. falciparum Dd2 [6] = test: SYBR green I asexual blood stage proliferation assay (96 h); type: cell-based, Plasmodium falciparum; conditions: Plasmodium falciparum, DD2, Sybr Green I, 11-pt dose response, 96hr
[7] = tested on: HepG2-A16-CD81 hepatocytes; test: cells; parameters: Uninfected hepatocyte viability, CellTiter-Glo luminescence; conditions: sheet CDD Export 1;, cytotoxicity primary screen, read-out: Table S5. Liver stage reconfirmation data / HepG2 Cytotoxicity primary screen (2uM): % Inhibition
Procedure: For the screen, 5 μL of HepG2-A16-CD81 hepatocytes containing 3 × 10^3 cells was seeded into 1536-well plates, which had been prespotted with 10 nL of library compound (2 μM final assay concentration (Figure 1)) and incubated overnight. For PbLuc infected plates, approximately 750 purified sporozoites in 5 μL of screening media were added to each well and incubated for 48 h before measuring luciferase activity. Compounds were tested for toxicity in parallel (see Methods) by measuring uninfected hepatocyte viability using CellTiter-Glo. […] This hit rate was slightly lower than expected for an agnostic library, which prompted us to rescreen the entire library at 10 μM. The PbLuc and cytotoxicity assay plates for this second replicate would be stamped in-house with 50 nL of library compound per well, using the same compound plates as the sexual stage screen described below. All the assay parameters were kept similar, except the change in concentration and shortening the time the compounds spent in each well prior to infection. […] All potential false positive effectors from the CellTiter-Glo assay were filtered from subsequent studies (Table S1). Naturally, there were more primary hits from the 10 μM than the 2 μM screen due to the higher testing concentration. For reconfirmation, we sourced all the hits that inhibited PbLuc at >70% and mean HepG2 at <50% in the 2 μM screen or PbLuc at >60% in both 2 and 10 μM screens and mean HepG2 at <50%. The resulting compounds were acquired as DMSO stocks and retested in the dose response (50–2.82 × 10^–4 μM or 25–141.13 × 10^–6 μM) against PbLuc and uninfected hepatocytes (Table S5). […] The majority of these compounds were weak inhibitors, although 18 submicromolar hits were found (Table S5).

[8] = tested on: P. berghei liver stage (PbLuc); test: P. berghei luciferase liver stage (PbLuc) assay in HepG2-A16-CD81 hepatocytes; type: cell-based, Plasmodium berghei; conditions: Plasmodium berghei
[9] = tested on: HepG2-A16-CD81 hepatocytes; test: HepG2 cytotoxicity screening (CellTiter-Glo)
[10] = biological target: recombinant firefly luciferase (Photinus pyralis, UniProt P08659); test: biochemical
Sequence of recombinant firefly luciferase (P08659 whole entry): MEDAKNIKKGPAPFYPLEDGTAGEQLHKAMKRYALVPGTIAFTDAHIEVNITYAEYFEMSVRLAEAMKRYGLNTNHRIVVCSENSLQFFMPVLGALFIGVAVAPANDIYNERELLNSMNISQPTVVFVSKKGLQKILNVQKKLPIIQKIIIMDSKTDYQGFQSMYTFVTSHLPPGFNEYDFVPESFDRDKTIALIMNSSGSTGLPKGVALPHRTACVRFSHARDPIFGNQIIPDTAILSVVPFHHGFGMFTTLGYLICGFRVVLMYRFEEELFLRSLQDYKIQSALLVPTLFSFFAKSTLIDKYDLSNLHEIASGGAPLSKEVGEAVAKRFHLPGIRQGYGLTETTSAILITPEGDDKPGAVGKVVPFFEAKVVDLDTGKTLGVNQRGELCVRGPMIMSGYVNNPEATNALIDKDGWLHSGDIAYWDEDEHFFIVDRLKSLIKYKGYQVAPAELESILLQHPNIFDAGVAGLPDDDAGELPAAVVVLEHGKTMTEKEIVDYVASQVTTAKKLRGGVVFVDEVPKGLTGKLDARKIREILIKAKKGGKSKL

in vitro = conditions: human
[11] = read-out: CDD P. falciparum Luc 11pt dose response (96hr, n=2): IC50 (μM), 11-point

CN(C)CCCNCCC(c1ccccc1)C1CCOC(C)(C)C1 (centres unmarked) [DDD01026663]
IC50 [1]: 2.82 µM | IC50 (P. falciparum Dd2 [2]): > 1.39 µM | IC50 [3, 11]: 0.627 µM

CC(C)C[C@H](N)C(=O)N1CC2(CCNCC2)c2cc(Cl)ccc21 [DDD01029528, CC(C)C[C@H](N)C(=O)N1CC2(CCNCC2)C2=CC(Cl)=CC=C12]
IC50 [1]: 1.79 µM | IC50 (P. falciparum Dd2 [2]): 1.52 µM | IC50 [3, 11]: 0.553 µM | IC50 ([4]; read-out: Stg V Gam dose response IC50 (µM) (n=3), 10-point dose response, n=3, 72 h): 3.02 µM | inhibition at 2 µM ([4]; read-out: Stg V Gam primary screen: Inhibition % (2uM) (n=2)): 49.8%

Cc1ccc(-c2ccccc2CC2(C(=O)NC(C)C)CCCNC2)cc1 (centres unmarked) [DDD01056815]
IC50 [1]: > 4.16 µM | IC50 (P. falciparum Dd2 [2]): > 4.16 µM | IC50 [3, 11]: 0.863 µM

CN(C)CCNC(=O)c1sc2ccccc2c1C1CCC(CN)CC1 (centres unmarked) [DDD01058779]
IC50 [1]: 1.31 µM | IC50 (P. falciparum Dd2 [2]): 1.65 µM | IC50 [3, 11]: 2.3 µM

CCOC(=O)C1(Cc2ccccc2-c2ccccc2OC)CCNCC1 [DDD01059034]
IC50 [1]: 5.11 µM | IC50 (P. falciparum Dd2 [2]): > 4.16 µM | IC50 [3, 11]: 0.861 µM

c1cc(-c2n[nH]cc2-c2ccnc(N3CCCC3)n2)ccn1 [DDD01235828]
IC50 ([5]; DD2, read-out: CDD P. falciparum Luciferase ABS 11-pt Reconfirmation Dose Response (48hr): IC50 (μM), 11-pt dose response, 48hr): > 4.16 µM | Emax ([5]; DD2, 8-pt dose response, 96hr, read-out: CDD P. falciparum Luciferase ABS 8-pt Reconfirmation Dose Response (96hr): Maximum inhibition (%)): 91% | Emax ([5]; DD2, 11-pt dose response, 48hr, read-out: CDD P. falciparum Luciferase ABS 11-pt Reconfirmation Dose Response (48hr): Maximum inhibition (%)): 53.9% | IC50 ([5]; DD2, 11-pt dose response, 96hr, read-out: CDD P. falciparum Luciferase ABS 11-pt Reconfirmation Dose Response (96hr): IC50): 0.167 µM | Emax ([5]; DD2, 11-pt dose response, 96hr, read-out: CDD P. falciparum Luciferase ABS 11-pt Reconfirmation Dose Response (96hr): Maximum inhibition (%)): 92% | IC50 ([5]; 96 h incubation, Dd2 luciferase, read-out: 96 hour Pfluc IC50): 0.17 µM | IC50 (P. falciparum Dd2 [6]; read-out: CDD P. falciparum Sybr Green I ABS 11-pt Reconfirmation Dose Response (96hr): IC50): 37 nM | Emax (P. falciparum Dd2 [6]; read-out: CDD P. falciparum Sybr Green I ABS 11-pt Reconfirmation Dose Response (96hr): Maximum inhibition (%)): 79.4% | IC50 ([3]; 8-point, 96 h, DMSO stocks, read-out: CDD P. falciparum Luciferase ABS 8-pt Reconfirmation Dose Response (96hr): IC50): 0.0618 µM

CNc1nc(C)c(-c2nc(-c3c(C)ncc4c3CCNC4)no2)s1 [DDD01244276]
IC50 [1]: 0.956 µM | IC50 (P. falciparum Dd2 [2]): 1.65 µM | IC50 [3, 11]: 0.337 µM

Cc1cc(N2CCC(NC(C)Cc3ccsc3)CC2)nc(N)n1 (centres unmarked) [DDD01252553]
IC50 [1]: 1.11 µM | IC50 (P. falciparum Dd2 [2]): 1.01 µM | IC50 [3, 11]: 0.246 µM

c1ccc(-c2ccc(C3CNCCO3)nc2)cc1 (centres unmarked) [DDD01270216]
inhibition at 2 µM [7]: 6.27% | IC50 ([8]; HepG2-A16-CD81, 48 h, 48 h liver stage, HepG2-A16-CD81, read-out: Pbluc (EEF) IC50): < 0.141 nM | IC50 ([9]; HepG2-A16-CD81, read-out: HepG2 tox IC50): > 25 µM | IC50 [1]: 1.77 µM | IC50 (P. falciparum Dd2 [2]): > 12.5 µM | IC50 ([10]; read-out: rLuc IC50): 220 nM | IC50 [3, 11]: 1.44 µM

c1ccc(CCCN2CCN(c3ccc4nncn4n3)CC2)cc1 [DDD01295523]
IC50 [1]: 3.86 µM | IC50 [3, 11]: 0.912 µM

COc1cc(C(=O)NCc2ccc3c(c2)CCCN3C)cc(OC)c1Br [DDD01300030]
IC50 [1]: 5.74 µM | IC50 (P. falciparum Dd2 [2]): > 12.5 µM | IC50 [3, 11]: 2.46 µM

COc1ccc(CNCC2CCN(CC(C)O)CC2)c2ccccc12 (centres unmarked) [DDD01302860]
IC50 [1]: 1.27 µM | IC50 (P. falciparum Dd2 [2]): 0.743 µM | IC50 [3, 11]: 0.621 µM

CCS(=O)(=O)N1[CH]Cc2ccc(NC(=O)Nc3cccc(C#N)c3)cc21 [UCSD-0785775]
Emax ([8]; HepG2-A16-CD81, 48 h, 12pt dose response, maximum inhibition): 91.5% | inhibition at 2 µM ([8]; HepG2-A16-CD81, primary screen, 2 uM): -22.1% | inhibition at 10 µM ([8]; HepG2-A16-CD81, primary screen, 10 uM): 86.7% | IC50 ([8]; HepG2-A16-CD81, read-out: PbLuc 12pt dose response: IC50): 1360 nM | HepG2 cytotoxicity 12pt dose response: Maximum inhibition (%) ([9]; 12pt dose response, maximum inhibition): 52.4% | Emax ([10]; dose response, maximum inhibition, read-out: rLuc inhibition dose response: Maximum inhibition (%)): 6.44% | IC50 ([10]; dose response, read-out: rLuc inhibition dose response: IC50): > 25000 nM | IC50 (in vitro): > 25 µM | inhibition at 2 µM (in vitro): -2.63% | inhibition at 10 µM (in vitro): 39.2%

O=C1[C@@H]2CC[C@@H](CN(c3ncnc4ccsc34)C2)N1CC1CC1 [UCSD-0827296]
inhibition at 2 µM (in vitro): -8.03%

O=C1NCCN1C1CCCN(Cc2coc(-c3ccc(F)cc3)n2)C1 (centres unmarked) [UCSD-0845351]
inhibition at 2 µM (in vitro): 0.09%
